# ChEMBL document CHEMBL1201862, “PubChem BioAssay data set” (2004)
# Active and inactive are the calls of the source.
# Tests used:
# [1] = target: T1, Corticotropin-releasing factor receptor 2/Corticotropin-releasing factor-binding protein (Homo sapiens, UniProt P24387+Q13324); assay: Dose Response confirmation of uHTS hits for small molecule antagonists of the CRF-binding protein and CRF-R2 receptor complex.; format: functional; settings: read-out: IC50_Mean
# T1 sequence (Q13324 whole entry): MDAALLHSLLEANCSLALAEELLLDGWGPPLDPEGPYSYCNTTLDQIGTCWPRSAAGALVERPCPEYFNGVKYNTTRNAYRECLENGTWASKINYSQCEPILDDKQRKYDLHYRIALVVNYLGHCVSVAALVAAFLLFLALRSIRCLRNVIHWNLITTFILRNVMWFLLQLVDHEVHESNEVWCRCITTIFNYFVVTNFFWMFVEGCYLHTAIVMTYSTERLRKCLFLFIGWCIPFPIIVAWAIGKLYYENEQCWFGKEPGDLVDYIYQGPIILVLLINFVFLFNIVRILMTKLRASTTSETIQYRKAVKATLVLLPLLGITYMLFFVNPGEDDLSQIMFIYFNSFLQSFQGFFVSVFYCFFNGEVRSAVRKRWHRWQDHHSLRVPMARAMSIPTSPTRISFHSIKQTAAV
# T1 sequence (P24387 whole entry): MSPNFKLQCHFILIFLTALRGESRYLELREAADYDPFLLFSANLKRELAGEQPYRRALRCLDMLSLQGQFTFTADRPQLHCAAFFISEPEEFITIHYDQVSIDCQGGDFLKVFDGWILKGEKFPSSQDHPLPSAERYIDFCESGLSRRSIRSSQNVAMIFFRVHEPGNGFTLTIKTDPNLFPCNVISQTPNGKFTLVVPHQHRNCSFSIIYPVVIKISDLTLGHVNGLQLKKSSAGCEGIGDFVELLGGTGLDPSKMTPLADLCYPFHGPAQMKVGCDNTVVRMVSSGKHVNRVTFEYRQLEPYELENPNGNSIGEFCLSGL
# [2] = CRF-BP/CRF-R2 complex antagonists, dose response, cell-based, uHTS hits, 384-well (AID 651639); format: functional, Homo sapiens; settings: read-out: IC50_Mean
# Leucine aminopeptidase = target: T2, Leucine aminopeptidase (Plasmodium falciparum 3D7, UniProt Q8IL11); assay: P. falciparum M17LAP inhibitors, primary screen, biochemical, fluorogenic H-Leu-NHMec substrate, 1536-well (AID 1619); format: functional
# T2 sequence (Q8IL11 whole entry): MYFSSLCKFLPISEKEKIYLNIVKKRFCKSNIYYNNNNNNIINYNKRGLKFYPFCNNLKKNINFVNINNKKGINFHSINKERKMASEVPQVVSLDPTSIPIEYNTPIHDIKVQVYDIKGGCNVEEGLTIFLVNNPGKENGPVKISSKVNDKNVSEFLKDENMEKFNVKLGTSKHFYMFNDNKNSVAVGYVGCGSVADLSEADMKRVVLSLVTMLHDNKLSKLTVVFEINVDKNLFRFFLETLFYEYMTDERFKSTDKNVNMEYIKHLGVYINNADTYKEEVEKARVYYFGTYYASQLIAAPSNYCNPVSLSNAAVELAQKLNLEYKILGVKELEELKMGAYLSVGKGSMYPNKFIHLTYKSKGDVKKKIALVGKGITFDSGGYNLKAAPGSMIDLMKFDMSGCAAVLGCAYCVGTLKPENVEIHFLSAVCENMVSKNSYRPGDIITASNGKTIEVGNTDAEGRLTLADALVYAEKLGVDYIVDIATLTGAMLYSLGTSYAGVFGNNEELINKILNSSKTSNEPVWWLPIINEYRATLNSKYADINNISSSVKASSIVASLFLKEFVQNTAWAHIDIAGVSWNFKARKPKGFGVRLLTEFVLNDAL
# [3] = target: T1, Corticotropin-releasing factor receptor 2/Corticotropin-releasing factor-binding protein; assay: activators of CRF receptor 2 with binding protein – uHTS hits, confirmation (AID 602473); format: functional; settings: read-out: EC50_Mean
# [4] = target: 5-hydroxytryptamine receptor 2A (Mus musculus, UniProt P35363); format: functional, cell-based;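 note: CHO-K1 cells with tagged receptor and beta-arrestin; agonist potency measured as compound-induced activation of the receptor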
# Mu-type opioid receptor = Mu-type opioid receptor (Homo sapiens, UniProt P35372); format: functional, cell-based;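 note: U2OS cells with beta-arrestin recruitment to OPRM1 by beta-gal complementation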
# [5] = target: T3, Probable nicotinate-nucleotide adenylyltransferase (Staphylococcus aureus (strain N315), UniProt P65502); format: functional, Staphylococcus aureus subsp. aureus N315; settings: read-out: IC50_Mean;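 for IC50 Mean: confirmatory dose-response retesting of NadD inhibitor hits first found in an ultra-high-throughput screen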
# [6] = target: T3, Probable nicotinate-nucleotide adenylyltransferase; format: functional, Staphylococcus aureus subsp. aureus N315
# [7] = target: T4, Short transient receptor potential channel 4 (Mus musculus, UniProt Q9QUQ5); assay: mouse TRPC4 channel inhibitors, dose response, cell-based, HEK293 TRPC4/mu-opioid, Fluo-4 calcium (AID 434942); format: functional;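 note: potency of inhibitors blocking the TRPC4 calcium response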
# T4 sequence (Q9QUQ5 whole entry): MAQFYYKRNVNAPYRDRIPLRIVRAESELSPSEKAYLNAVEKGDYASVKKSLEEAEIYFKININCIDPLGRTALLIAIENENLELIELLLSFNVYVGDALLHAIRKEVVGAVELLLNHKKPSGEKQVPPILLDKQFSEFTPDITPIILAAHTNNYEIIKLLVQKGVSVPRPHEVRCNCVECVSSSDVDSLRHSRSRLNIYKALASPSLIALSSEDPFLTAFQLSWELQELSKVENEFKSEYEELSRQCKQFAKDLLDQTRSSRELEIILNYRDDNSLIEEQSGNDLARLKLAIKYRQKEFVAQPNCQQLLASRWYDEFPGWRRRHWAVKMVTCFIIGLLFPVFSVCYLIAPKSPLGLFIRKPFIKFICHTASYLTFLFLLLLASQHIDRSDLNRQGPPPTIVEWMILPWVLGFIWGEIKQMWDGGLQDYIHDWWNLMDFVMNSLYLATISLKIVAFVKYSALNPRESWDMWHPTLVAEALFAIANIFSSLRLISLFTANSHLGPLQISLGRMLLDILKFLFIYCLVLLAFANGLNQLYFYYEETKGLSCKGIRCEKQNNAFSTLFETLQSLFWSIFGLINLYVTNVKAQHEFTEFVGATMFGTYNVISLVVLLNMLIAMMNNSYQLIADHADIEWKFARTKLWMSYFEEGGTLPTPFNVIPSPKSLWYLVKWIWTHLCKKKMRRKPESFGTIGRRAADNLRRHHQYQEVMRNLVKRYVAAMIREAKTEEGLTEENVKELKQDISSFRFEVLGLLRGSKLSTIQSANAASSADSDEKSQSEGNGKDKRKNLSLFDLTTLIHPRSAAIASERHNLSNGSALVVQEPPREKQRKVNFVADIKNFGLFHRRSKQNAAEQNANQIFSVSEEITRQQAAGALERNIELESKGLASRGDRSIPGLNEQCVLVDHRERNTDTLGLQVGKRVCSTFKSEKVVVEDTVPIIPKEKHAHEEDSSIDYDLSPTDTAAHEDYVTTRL
# [8] = inhibitors of firefly luciferase expression or activity, dose response, H4 neuroglioma cells, luminescence (AID 1990); format: functional, cell-based
# [9] = inhibitors of clade B AD8 Env fusion, dose response, cell-based, cherry-pick (AID 652062); format: functional;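 note: luciferase signal from cell-cell fusion driven by HIV-1 clade B AD8 Env; potency is for inhibitors of fusion seen as a drop in luminescence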
# [10] = inhibitors of SNCA 5'UTR-driven reporter translation, confirmation, H4 neuroglioma cells, luminescence (AID 1988); format: functional, cell-based
# [11] = CEM21 lymphoblast cell cytotoxicity, dose response, cytotoxicity control for viral fusion inhibitor project, CellTiter-Glo luminescence, cherry-picked (AID 652042); format: functional, cell-based;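 note: potency for signal decrease meaning cytotoxicity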
# [12] = Luminescence Cell-Based Dose Response HTS to Identify Inhibitors of 5'UTR Stem-Loop Driven Prion Protein mRNA Translation in H4 Neuroglioblastoma Cells. [Related pubchem assays: 1827 (Project Summary), 1813 (Primary HTS)]; format: functional
# Protein RecA = target: T5, Protein RecA (Mycobacterium tuberculosis, UniProt P9WHJ3); assay: Fluorescence Cell-Free Homogeneous Dose Retest to Identify Inhibitors of RecA-Intein Splicing Activity. [Related pubchem assays (depositor defined):AID2097, AID2223, AID489010, AID492950]; format: functional
# T5 sequence (P9WHJ3 whole entry): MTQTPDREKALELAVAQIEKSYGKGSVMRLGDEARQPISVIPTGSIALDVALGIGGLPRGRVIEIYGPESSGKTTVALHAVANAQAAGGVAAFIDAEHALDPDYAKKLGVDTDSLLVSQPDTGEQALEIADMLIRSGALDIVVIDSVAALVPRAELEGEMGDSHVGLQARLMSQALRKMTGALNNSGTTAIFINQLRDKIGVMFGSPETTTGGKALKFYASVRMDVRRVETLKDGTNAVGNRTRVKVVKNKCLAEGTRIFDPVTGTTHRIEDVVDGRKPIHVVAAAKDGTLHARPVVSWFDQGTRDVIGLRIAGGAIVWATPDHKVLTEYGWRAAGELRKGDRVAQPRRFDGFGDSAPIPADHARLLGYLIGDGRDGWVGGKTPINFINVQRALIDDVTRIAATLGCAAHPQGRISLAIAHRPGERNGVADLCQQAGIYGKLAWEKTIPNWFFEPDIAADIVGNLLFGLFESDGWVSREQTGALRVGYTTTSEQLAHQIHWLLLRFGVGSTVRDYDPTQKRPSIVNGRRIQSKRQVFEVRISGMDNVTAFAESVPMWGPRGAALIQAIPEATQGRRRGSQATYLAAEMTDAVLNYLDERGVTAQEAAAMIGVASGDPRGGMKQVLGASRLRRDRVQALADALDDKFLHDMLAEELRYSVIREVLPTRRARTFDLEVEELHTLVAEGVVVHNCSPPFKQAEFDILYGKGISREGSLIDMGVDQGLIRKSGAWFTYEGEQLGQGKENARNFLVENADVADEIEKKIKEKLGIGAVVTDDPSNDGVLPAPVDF
# [13] = target: T6, Replicative DNA helicase DnaB (Mycobacterium tuberculosis, UniProt P9WMR3); assay: DnaB intein splicing inhibitors, dose response, biochemical, cell-free fluorescence (AID 449749); format: functional
# T6 sequence (P9WMR3 whole entry): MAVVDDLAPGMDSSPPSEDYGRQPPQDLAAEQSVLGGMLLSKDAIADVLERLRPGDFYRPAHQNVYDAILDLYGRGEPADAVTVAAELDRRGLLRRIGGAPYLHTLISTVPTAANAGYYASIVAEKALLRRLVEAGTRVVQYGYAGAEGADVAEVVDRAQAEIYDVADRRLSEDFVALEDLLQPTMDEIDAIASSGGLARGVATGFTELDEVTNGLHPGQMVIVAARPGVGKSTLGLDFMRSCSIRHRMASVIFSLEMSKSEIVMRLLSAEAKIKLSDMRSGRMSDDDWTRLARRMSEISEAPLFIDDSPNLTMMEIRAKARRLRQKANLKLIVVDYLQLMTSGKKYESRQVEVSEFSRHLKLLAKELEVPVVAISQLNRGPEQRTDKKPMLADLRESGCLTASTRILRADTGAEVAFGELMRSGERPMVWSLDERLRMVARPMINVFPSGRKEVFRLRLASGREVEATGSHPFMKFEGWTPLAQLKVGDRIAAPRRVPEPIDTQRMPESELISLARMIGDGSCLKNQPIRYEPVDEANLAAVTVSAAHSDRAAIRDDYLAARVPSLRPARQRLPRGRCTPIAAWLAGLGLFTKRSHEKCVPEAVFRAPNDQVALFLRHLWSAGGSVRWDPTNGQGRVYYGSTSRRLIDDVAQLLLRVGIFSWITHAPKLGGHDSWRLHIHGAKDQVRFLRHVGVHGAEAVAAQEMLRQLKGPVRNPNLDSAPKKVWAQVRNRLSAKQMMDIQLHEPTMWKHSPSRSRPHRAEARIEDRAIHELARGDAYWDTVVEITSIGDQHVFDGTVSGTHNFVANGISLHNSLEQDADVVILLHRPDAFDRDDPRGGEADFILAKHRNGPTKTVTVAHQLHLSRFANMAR
# [14] = inhibitors of HIV Env-driven cell fusion, dose response, cherry-pick (AID 652057); format: functional, cell-based
# [15] = intracellular Trypanosoma cruzi inhibitors in host cells – cell-based, plate reader, cherry-pick samples, set 3, dose response (AID 651818); format: functional;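 note: compounds incubated with infected cells for about four days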
# [16] = ZM109 Env clade C HIV-1 fusion inhibitors, dose response, HeLa effector, CEM target cells, luciferase, cherry-pick (AID 652058); format: functional, cell-based
# 5-hydroxytryptamine receptor 2A, sequence (P35363 whole entry): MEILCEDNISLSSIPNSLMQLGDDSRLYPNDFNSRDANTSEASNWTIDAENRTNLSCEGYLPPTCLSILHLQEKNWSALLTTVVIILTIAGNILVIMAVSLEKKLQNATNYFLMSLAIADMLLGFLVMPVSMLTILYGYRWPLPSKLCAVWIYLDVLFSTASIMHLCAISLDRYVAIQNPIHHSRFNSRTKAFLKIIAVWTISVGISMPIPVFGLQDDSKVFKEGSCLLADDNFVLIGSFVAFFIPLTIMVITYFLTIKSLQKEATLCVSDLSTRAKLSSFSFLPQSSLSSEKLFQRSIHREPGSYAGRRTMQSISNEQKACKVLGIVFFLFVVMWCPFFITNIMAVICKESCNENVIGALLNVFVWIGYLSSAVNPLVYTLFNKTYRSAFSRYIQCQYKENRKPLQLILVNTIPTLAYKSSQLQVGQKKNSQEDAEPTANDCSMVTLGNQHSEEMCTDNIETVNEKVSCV
# T3 sequence (P65502 whole entry): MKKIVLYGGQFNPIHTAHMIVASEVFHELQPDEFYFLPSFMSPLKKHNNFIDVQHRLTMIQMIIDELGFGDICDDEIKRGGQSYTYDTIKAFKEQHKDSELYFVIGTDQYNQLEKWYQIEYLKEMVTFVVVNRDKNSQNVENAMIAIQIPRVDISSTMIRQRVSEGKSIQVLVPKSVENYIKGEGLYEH
# Mu-type opioid receptor, sequence (P35372 whole entry): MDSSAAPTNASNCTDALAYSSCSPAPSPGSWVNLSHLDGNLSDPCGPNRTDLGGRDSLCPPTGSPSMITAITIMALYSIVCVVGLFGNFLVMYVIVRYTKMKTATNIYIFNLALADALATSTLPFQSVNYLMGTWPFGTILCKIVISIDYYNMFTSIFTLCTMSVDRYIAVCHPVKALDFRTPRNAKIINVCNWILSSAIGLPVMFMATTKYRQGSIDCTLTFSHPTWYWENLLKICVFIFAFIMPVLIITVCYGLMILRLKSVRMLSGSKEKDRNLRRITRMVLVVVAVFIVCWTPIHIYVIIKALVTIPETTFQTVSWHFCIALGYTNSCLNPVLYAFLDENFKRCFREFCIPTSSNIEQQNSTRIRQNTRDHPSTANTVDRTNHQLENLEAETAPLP
smiles,measurement,setting,value
O=C(COc1ccc2ccccc2c1)Nc1cccc(C(=O)Nc2ccccc2C(=O)O)c1,IC50,[1],2.55 µM (active)
same,IC50,[2],7.44 µM (active)
same,IC50,Leucine aminopeptidase,8.71 µM (active)
same,EC50,[3],> 53 µM (inactive)
O=S(=O)(c1ccc(OCC(O)CN2CCN(c3ccccc3)CC2)cc1)N1CCOCC1 (stereo unspecified),EC50,[4],0.481 µM (active)
same,EC50,Mu-type opioid receptor,92.4 µM (inactive)
N#C/C(=C/c1cn(-c2ccccc2)nc1-c1cccc(S(=O)(=O)N2CCCC2)c1)C(=O)NCc1ccco1,IC50,[5],50.1 µM (active)
same,IC50,[6],14.4 µM (active)
Cc1cc([N+](=O)[O-])ccc1NCc1ccco1,IC50,[1],23.1 µM (active)
same,IC50,[2],7.36 µM (active)
same,EC50,[3],> 53 µM (inactive)
same,EC50,[7],5.96 µM (active)
CN(C)S(=O)(=O)c1ccc(Cl)c(NC(=O)CN2CCc3ccccc3C2)c1,EC50,[4],1.75 µM (active)
same,EC50,Mu-type opioid receptor,92.5 µM (inactive)
COC(=O)c1ccc(C(=O)NC2CCCc3c2cnn3-c2ccc(C)c(C)c2)cc1 (stereo unspecified),IC50,[1],> 47.1 µM (inactive)
same,EC50,[8],8.89 µM (inconclusive)
same,AC50,[9],18.9 µM (active)
same,EC50,[10],0.997 µM (active)
same,AC50,[11],19.4 µM (active)
same,EC50,[12],> 120 µM (not active)
same,EC50,[3],> 53 µM (inactive)
O=C(NCCN1CCN(c2ccccc2F)CC1)C1CCCN(S(=O)(=O)c2c[nH]cn2)C1 (stereo unspecified),EC50,[4],0.895 µM (active)
same,EC50,Mu-type opioid receptor,92.5 µM (inactive)
O=C(Cc1cc(O)[nH]n1)N/N=C/C=C/c1ccccc1,IC50,[5],23.5 µM (active)
same,IC50,[6],7.45 µM (active)
same,EC50,Protein RecA,2.76 µM (active)
same,AC50,[13],3.17 µM (active)
C[C@@H]1CN([C@@H](C)CO)C(=O)c2cccc(NS(=O)(=O)c3ccc(F)cc3)c2O[C@@H]1CN(C)Cc1ccc(-c2ccccc2)cc1,AC50,[14],22.4 µM (active)
same,AC50,[11],48.1 µM (active)
same,AC50,[15],3.81 µM (active)
same,AC50,[16],26.5 µM (active)
